Results from patent publication US12532889B2, “Herbicidal compositions comprising glufosinate” (BASF SE, priority 2023, dated 2026).
Several values for one entry are separate records, joined by “and”; a condition that tells them apart may be missing. Equal entries are not always repeated.

Experiments:
Assay in all cases: Post-emergence application in field trials (Example A)
Type in all cases: in vivo
[1] = test system: HORVW (Hordeum vulgare (winter barley))
Procedure: (§1) In the examples below, using the method of S. R. Colby (1967) “Calculating synergistic and antagonistic responses of herbicide combinations”, Weeds 15, p. 22ff., the value E, which is expected if the activity of the individual active compounds is only additive, was calculated:
(§2) [formula] • where • X=percent activity using active herbicide A at an application rate a; • Y=percent activity using active herbicide B (e.g. glufosinate) at an application rate b; • E=expected activity (in %) by A+B at application rates a+b.
(§3) If the value found experimentally is higher than the value E calculated according to Colby, a synergistic effect is present.
(§4) On field test sites, natural weed infestation or seeded weeds were treated post-emergence of the weeds.
(§5) In the field trials, the weeds were treated as indicated below.
(§6) In the following experiments, the herbicidal activity for the individual herbicidal compositions (solo and mixture applications) was assessed at the indicated days after treatment (DAT). The assessments for the damage on undesired weeds caused by the composition was carried out using a scale from 0 to 100%, compared to the untreated control plants. Here, 0 means no damage and 100 means complete destruction of the plants.

[2] = test system: PASSC (Paspalum scrobiculatum); conditions: Table 5.2, A-1 25, B-6 252 g ai/ha, 21 DAT, water 450 l/ha
Procedure: as §1, §2, §3, §4, §5, §6

[3] = test system: DIGSA (Digitaria sanguinalis); conditions: for % Herbicidal activity: growth stage 22
Procedure: as §1, §2, §3, §4, §5, §6

[4] = test system: GLXMA (Glycine max); conditions: 21 DAT; B-6 252 g ai/ha; growth stage 13; height 5-10 cm
Procedure: as §1, §2, §3, §4, §5, §6

[5] = test system: ZEAMX (Zea mays)
Procedure: as §1, §2, §3, §4, §5, §6

[6] = test system: LOLMU (Lolium multiflorum); conditions: for % Herbicidal activity: B-6 252 g ai/ha, growth stage 22-25, height 20-25 cm; for % herbicidal activity: Table 6.1, LOLMU growth stage 22-25, height 20-25 cm, 200 l/ha water
Procedure: as §1, §2, §3, §4, §5, §6

[7] = test system: SETPA (Setaria palmifolia); conditions: Table 5.3; SETPA growth stage 76-77; A-1 25, B-6 252 g ai/ha; 28 DAT; water 300 l/ha
Procedure: as §1, §2, §3, §4, §5, §6

[8] = test system: ECHCG (Echinocloa crus-galli)
Procedure: as §1, §2, §3, §4, §5, §6

[9] = test system: AMASP (Amaranthus spinosus); conditions: Table 5.5; AMASP growth stage 72; A-1 25, B-6 252 g ai/ha; 28 DAT; water 400 l/ha
Procedure: as §1, §2, §3, §4, §5, §6

[10] = test system: COMDI (Commelina diffusa); conditions: Table 5.3; COMDI growth stage 76-77; A-1 25, B-6 252 g ai/ha; 28 DAT; water 300 l/ha
Procedure: as §1, §2, §3, §4, §5, §6

[11] = 21 DAT, B-6 252 g ai/ha, growth stage 23-29, height 20-25 cm
[12] = 42 DAT, B-6 252 g ai/ha, growth stage 15-16, height 27-33 cm
[13] = 21 DAT, B-6 150 g ai/ha, growth stage 23-30, height 15-20 cm
[14] = 21 DAT, B-6 252 g ai/ha, growth stage 23-30, height 15-20 cm

Compound: CP(=O)(O)CC[C@H](N)C(=O)O.N [B-6, glufosinate-P-ammonium]
- % Herbicidal activity ([1]; 7 DAT, B-6 150 g ai/ha, growth stage 23-29, height 20-25 cm): 0%
- % Herbicidal activity ([1]; 7 DAT, B-6 252 g ai/ha, growth stage 23-29, height 20-25 cm): 50% and 30%
- % Herbicidal activity ([1]; 21 DAT, B-6 150 g ai/ha, growth stage 23-29, height 20-25 cm): 0%
- % Herbicidal activity [1, 11]: 70%
- % herbicidal activity [1, 11]: 30% and 40%
- % herbicidal activity ([1]; Table 6.1, HORVW growth stage 23-29, height 20-25 cm, A-1 12.5, B-6 150 g ai/ha, 7 DAT, 200 l/ha water): 0%
- % herbicidal activity ([1]; Table 6.1, HORVW growth stage 23-29, height 20-25 cm, A-1 12.5, B-6 252 g ai/ha, 7 DAT, 200 l/ha water): 50%
- % herbicidal activity ([1]; Table 6.1, HORVW growth stage 23-29, height 20-25 cm, A-1 18, B-6 150 g ai/ha, 7 DAT, 200 l/ha water): 0%
- % herbicidal activity ([1]; Table 6.1, HORVW growth stage 23-29, height 20-25 cm, A-1 18, B-6 252 g ai/ha, 7 DAT, 200 l/ha water): 40%
- % herbicidal activity [2]: 27%
- % Herbicidal activity ([3]; 7 DAT, B-6 252 g ai/ha, height 10-15 cm): 75%
- % herbicidal activity ([3]; 21 DAT, B-6 252 g ai/ha, growth stage 21-22, height 10-15 cm): 20%
- % Herbicidal activity ([3]; 21 DAT, B-6 252 g ai/ha, height 10-15 cm): 80%
- % Herbicidal activity ([3]; 42 DAT, B-6 252 g ai/ha, height 10-15 cm): 50%
- % herbicidal activity ([3]; Table 6.1, DIGSA growth stage 21-22, height 10-15 cm, A-1 18, B-6 252 g ai/ha, 7 DAT, 200 l/ha water): 30%
- % herbicidal activity [4]: 70%
- % Herbicidal activity ([5]; 21 DAT, B-6 252 g ai/ha, growth stage 15-16, height 27-33 cm): 65%
- % herbicidal activity ([5]; 21 DAT, B-6 252 g ai/ha, growth stage 15-16, height 50-60 cm): 30%
- % Herbicidal activity ([5]; 28 DAT, B-6 252 g ai/ha, growth stage 15-16, height 50-60 cm): 75%
- % Herbicidal activity [5, 12]: 45% and 50%
- % herbicidal activity [5, 12]: 45%
- % herbicidal activity ([5]; Table 6.1, ZEAMX growth stage 15-16, height 50-60 cm, A-1 18, B-6 252 g ai/ha, 7 DAT, 200 l/ha water): 65%
- % Herbicidal activity ([6]; 7 DAT): 60%
- % Herbicidal activity ([6]; 28 DAT): 40%
- % herbicidal activity ([6]; A-1 12.5, B-6 252 g ai/ha, 7 DAT): 60%
- % herbicidal activity ([6]; A-1 18, B-6 252 g ai/ha, 7 DAT): 60%
- % herbicidal activity [7]: 32%
- % Herbicidal activity ([8]; 7 DAT, B-6 252 g ai/ha, growth stage 23-30, height 15-20 cm): 60%
- % Herbicidal activity [8, 13]: 40%
- % herbicidal activity [8, 13]: 40%
- % Herbicidal activity [8, 14]: 70%
- % herbicidal activity [8, 14]: 70%
- % Herbicidal activity ([8]; 28 DAT, B-6 252 g ai/ha, growth stage 23-30, height 15-20 cm): 70% and 60%
- % herbicidal activity ([8]; Table 6.1, ECHCG growth stage 23-30, height 15-20 cm, A-1 12.5, B-6 150 g ai/ha, 7 DAT, 200 l/ha water): 50%
- % herbicidal activity ([8]; Table 6.1, ECHCG growth stage 23-30, height 15-20 cm, A-1 12.5, B-6 252 g ai/ha, 7 DAT, 200 l/ha water): 60%
- % herbicidal activity ([8]; Table 6.1, ECHCG growth stage 23-30, height 15-20 cm, A-1 18, B-6 150 g ai/ha, 7 DAT, 200 l/ha water): 50%
- % herbicidal activity ([8]; Table 6.1, ECHCG growth stage 23-30, height 15-20 cm, A-1 18, B-6 252 g ai/ha, 7 DAT, 200 l/ha water): 60%
- % herbicidal activity [9]: 84%
- % herbicidal activity [10]: 39%
